This is an account of results in patent US20210317092A1 (BAYER PHARMA AKTIENGESELLSCHAFT, priority 2016, published 2021).

pIC50: −log10 of the molar value.

The target of the first assay is T1, human Bradykinin B1 receptor (Homo sapiens, UniProt P46663).
T1 construct: host or cells: CHO-K1
T1 sequence (P46663 1-353): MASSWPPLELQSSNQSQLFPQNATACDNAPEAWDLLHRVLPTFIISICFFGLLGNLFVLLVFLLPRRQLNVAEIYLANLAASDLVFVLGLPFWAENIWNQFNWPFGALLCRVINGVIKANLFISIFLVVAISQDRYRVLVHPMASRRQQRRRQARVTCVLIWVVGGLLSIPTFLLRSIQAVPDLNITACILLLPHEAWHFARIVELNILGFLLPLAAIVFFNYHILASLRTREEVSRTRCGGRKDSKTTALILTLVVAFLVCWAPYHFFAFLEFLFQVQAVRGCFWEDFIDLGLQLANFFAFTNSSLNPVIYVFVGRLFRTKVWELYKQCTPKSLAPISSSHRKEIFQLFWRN
Briefly: Calcium flux Assay (FLIPR) with recombinant CHO-K1 cells expressing human Bradykinin B1 receptor, in presence (hB1 IC50) or absence (hB1 free IC50) of 0.1% BSA. Particulars: in absence of 0.1% BSA, read-out: hB1 free IC50. It is filed as cell-based.
Broadly, the pIC50 is −log10 of the IC50, conventionally taken in molar units. With `O=C(Nc1ccc(-n2cc(C(F)F)cn2)c(-c2nnn[nH]2)c1)C1(c2ccc(C(F)(F)F)cc2F)CC1` [Example 346, N-{4-[4-(Difluoromethyl)-1H-pyrazol-1-yl]-3-(1H-tetrazol-5-yl)phenyl}-1-[2-fluoro-4-(trifluoromethyl)phenyl]cyclopro-panecarboxamide], the negative logarithm of the IC50 (pIC50) is 7.18. The same measure, in the same setting: the value for `O=C(Nc1ccc(-n2cc(Cl)cn2)c(-c2nnn[nH]2)c1)C1(c2ccc(C(F)(F)F)cc2F)CC1` [Example 394, N-[4-(4-chloro-1H-pyrazol-1-yl)-3-(1H-tetrazol-5-yl)phenyl]-1-[2-fluoro-4-(trifluoromethyl)phenyl]cyclopro-panecarboxamide] was 7.17.

Turning to `O=C(Nc1ccc(-n2cc(C(F)F)cn2)c(-c2nnn[nH]2)c1)C1(c2cccc(Cl)c2)CC1` [Example 350, 1-(3-Chlorophenyl)-N-{4-[4-(difluoromethyl)-1H-pyrazol-1-yl]-3-(1H-tetrazol-5-yl)phenyl}cyclopro-panecarboxa-mide], the pIC50 was 6.09. On the same count and under the same terms, the value for `Cc1nc(C(F)(F)F)cn1-c1ccc(NC(=O)C2(c3ccc(C(F)(F)F)cc3F)CC2)cc1-c1nnn[nH]1` [Example 370, 1-[2-Fluoro-4-(trifluoromethyl)phenyl]-N-{4-[2-methyl-4-(trifluoromethyl)-1H-imidazol-1-yl]-3-(1H-tetrazol-5-yl)phenyl}cyclopro-panecarboxa-mide] was 6.06. Still for that read-out and setting: next, `CCc1ccn(-c2ccc(NC(=O)C3(c4ccc(C)cc4F)CC3)cc2-c2nnn[nH]2)n1` [Example 371, N-[4-(3-ethyl-1H-pyrazol-1-yl)-3-(1H-tetrazol-5-yl)phenyl]-1-(2-fluoro-4-methylphenyl)cyclo-propanecar-boxamide]: 6.55; `CCC(F)(F)c1ccc(-c2ccc(NC(=O)C3(c4ccc(C)cc4F)CC3)cc2-c2nnn[nH]2)cn1` [Example 285, N-{4-[6-(1,1-difluoropropyl)py-ridin-3-yl]-3-(1H-tetrazol-5-yl)phenyl}-1-(2-fluoro-4-methylphenyl)cy-clopropanecar-boxamide]: 7.80. Consider `Cc1ccc(C2(C(=O)Nc3ccc(-n4cc(C(F)(F)F)nc4C)c(-c4nnn[nH]4)c3)CC2)c(F)c1` [Example 369, 1-(2-Fluoro-4-methylphenyl)-N-{4-[2-methyl-4-(trifluoromethyl)-1H-imidazol-1-yl]-3-(1H-tetrazol-5-yl)phenyl}cyclopro-panecarboxa-mide], for which the pIC50 was 5.95.

With `CCc1cnn(-c2ccc(NC(=O)C3(c4cccc(Cl)c4)CC3)cc2-c2nnn[nH]2)c1` [Example 378, 1-(3-Chlorophenyl)-N-[4-(4-ethyl-1H-pyrazol-1-yl)-3-(1H-tetrazol-5-yl)phenyl]cyclopro-panecarboxa-mide], the pIC50 was 6.46.

As to `O=C(Nc1ccc(-c2ccc(Cl)nc2)c(-c2nnn[nH]2)c1)C1(c2cccc(Cl)c2)CC1` [Example 341, 1-(3-chlorophenyl)-N-[4-(6-chloropyridin-3-yl)-3-(1H-tetrazol-5-yl)phenyl]cyclopro-panecarboxa-mide], the negative-log IC50 (pIC50) is 7.06. Still for that read-out and setting: the value for `CC(F)(F)c1ccc(-c2ccc(NC(=O)C3(c4ccc(OC(F)(F)F)cc4)CC3)cc2-c2nnn[nH]2)cn1` [Example 278, N-{4-[6-(1,1-difluroethyl)py-ridin-3-yl]-3-(1H-tetrazol-5-yl)phenyl}-1-[4-(trifluoromethoxy)phenyl]cyclo-propanecarboxa-mide] was 8.44; that for `O=C(Nc1ccc(-c2cc3ccccc3s2)c(-c2nnn[nH]2)c1)C1(c2ccc(C(F)(F)F)cc2F)CC1` [Example 384, N-[4-(1-benzothiophen-2-yl)-3-(1H-tetrazol-5-yl)phenyl]-1-[2-fluoro-4-(trifluoromethyl)phenyl]cyclopro-panecarboxamide] was 7.83. On the same count and under the same terms, the value for `COc1ccc(-c2ccc(NC(=O)C3(c4cccc(C(F)(F)F)c4)CC3)cc2-c2nnn[nH]2)cc1OC` [Example 38, N-[3′,4′-dimethoxy-2-(1H-tetrazol-5-yl)biphenyl-4-yl]-1-[3-(trifluoromethyl)phenyl] cyclopropane-carboxamide] was 7.86; that for `COc1ncccc1-c1ccc(NC(=O)C2(c3cccc(Cl)c3)CC2)cc1-c1nnn[nH]1` [Example 187, 1-(3-chlorophenyl)-N-[4-(2-methoxypyridin-3-yl)-3-(1H-tetrazol-5-yl)phenyl] cyclopropane-carboxamide] was 5.79.

Turning to `O=C(Nc1ccc(-c2ccnc(C(F)(F)F)c2)c(-c2nnn[nH]2)c1)C1(c2ccc(Cl)c(F)c2)CC1` [Example 177, 1-(4-chloro-3-fluorophenyl)-N-{3-(1H-tetrazol-5-yl)-4-[2-(trifluoromethyl)pyridin-4-yl]phenyl} cyclopropane-carboxamide], the pIC50 is 6.56. Same read-out and setting: next, `Cc1ccc(C2(C(=O)Nc3ccc(-n4cnc(C(C)(C)C)c4)c(-c4nnn[nH]4)c3)CC2)c(F)c1` [Example 402, N-[4-(4-tert-butyl-1H-imidazol-1-yl)-3-(1H-tetrazol-5-yl)phenyl]-1-(2-fluoro-4-methylphenyl)cy-clopropanecar-boxamide]: 7.60; `COc1cc(-c2ccc(NC(=O)C3(c4cccc(Cl)c4)CC3)cc2-c2nnn[nH]2)cc(C(F)(F)F)n1` [Example 199, 1-(3-chlorophenyl)-N-{4-[2-methoxy-6-(trifluoromethyl)pyridin-4-yl]-3-(1H-tetrazol-5-yl)phenyl} cyclopropane-carboxamide]: 5.80.

On to `CCC1CCN(c2ccc(NC(=O)C3(c4cccc(Cl)c4)CC3)cc2-c2nnn[nH]2)C1=O` (stereo not drawn) [Example 405, 1-(3-chlorophenyl)-N-[4-(3-ethyl-2-oxopyrrolidin-1-yl)-3-(1H-tetrazol-5-yl)phenyl]cyclopro-panecarboxa-mide], for which the negative-log IC50 (pIC50) was 5.86. For `COc1ccc(-c2ccc(NC(=O)C3(c4ccc(C(F)(F)F)cc4F)CC3)cc2-c2nnn[nH]2)cc1OC` [Example 20, N-[3′,4′-dimethoxy-2-(1H-tetrazol-5-yl)biphenyl-4-yl]-1-[2-fluoro-4-(trifluoromethyl)phenyl] cyclopropane-carboxamide], the pIC50 was 7.53. Same read-out and setting: next, `O=C(Nc1ccc(-c2ccc(C(F)F)nc2)c(-c2nnn[nH]2)c1)C1(c2ccc(Cl)c(F)c2)CC1` [Example 272, 1-(4-chloro-3-fluorophenyl)-N-{4-[6-(difluoromethyl)pyridin-3-yl]-3-(1H-tetrazol-5-yl)phenyl}cyclopro-panecarboxa-mide]: 8.33.

The same assay, now with this note: in presence of 0.1% BSA, read-out: hB1 IC50.
With `CCOc1ccc(-c2ccc(NC(=O)C3(c4cccc(F)c4Cl)CC3)cc2-c2nnn[nH]2)cn1` [Example 106, 1-(2-chloro-3-fluorophenyl)-N-[4-(6-ethoxypyridin-3-yl)-3-(1H-tetrazol-5-yl)phenyl] cyclopropane-carboxamide], the negative logarithm of the IC50 (pIC50) is 7.25. Same read-out and setting: the value for `CCOc1cncc(-c2ccc(NC(=O)C3(c4ccc(F)cc4F)CC3)cc2-c2nnn[nH]2)c1` [Example 157, 1-(2,4-difluorophenyl)-N-[4-(5-ethoxypyridin-3-yl)-3-(1H-tetrazol-5-yl)phenyl] cyclopropane-carboxamide] was 6.85; that for `COc1ccc(-c2ccc(NC(=O)C3(c4cccc(OC(F)F)c4)CC3)cc2-c2nnn[nH]2)cc1OC` [Example 22, 1-[3-(difluoromethoxy)phenyl]-N-[3′,4′-dimethoxy-2-(1H-tetrazol-5-yl)biphenyl-4-yl]cyclopropane carboxamide] was 6.67. Still for that read-out and setting: the value for `O=C(Nc1ccc(-c2ccc(Cl)nc2)c(-c2nnn[nH]2)c1)C1(c2cccc(Cl)c2)CC1` [Example 341, 1-(3-chlorophenyl)-N-[4-(6-chloropyridin-3-yl)-3-(1H-tetrazol-5-yl)phenyl]cyclopro-panecarboxa-mide] was 6.94; that for `CCOc1ccc(-c2ccc(NC(=O)C3(C(C)C)CC3)cc2-c2nnn[nH]2)cn1` [Example 90, N-[4-(6-ethoxypyridin-3-yl)-3-(1H-tetrazol-5-yl)phenyl]-1-isopropyl-cyclopropane-carboxamide] was 5.81. Still for that read-out and setting: the value for `COc1cncc(-c2ccc(NC(=O)C3(c4ccc(C(F)(F)F)cc4)CC3)cc2-c2nnn[nH]2)c1` [Example 154, N-[4-(5-methoxypyridin-3-yl)-3-(1H-tetrazol-5-yl)phenyl]-1-[4-(trifluoromethyl)phenyl] cyclopropane-carboxamide] was 7.57. Turning to `COc1ccc(-c2ccc(NC(=O)C3(c4cccc(Cl)c4)CC3)cc2-c2nnn[nH]2)cc1` [Example 314, 1-(3-chlorophenyl)-N-[4′-methoxy-2-(1H-tetrazol-5-yl)biphenyl-4-yl]cyclopropane-carboxamide], the pIC50 was 6.47.

As for `COc1ccc(-c2ccc(NC(=O)C3(c4cccc(C(F)(F)F)c4)CC3)cc2-c2nnn[nH]2)cc1OC` [Example 38, N-[3′,4′-dimethoxy-2-(1H-tetrazol-5-yl)biphenyl-4-yl]-1-[3-(trifluoromethyl)phenyl] cyclopropane-carboxamide], the negative logarithm of the IC50 (pIC50) was 7.41. As to `COc1ccc(-c2ccc(NC(=O)C3(c4cc(F)cc(Cl)c4)CC3)cc2-c2nnn[nH]2)cc1OC` [Example 15, 1-(3-chloro-5-fluorophenyl)-N-[3′,4′-dimethoxy-2-(1H-tetrazol-5-yl)biphenyl-4-yl]cyclopropane carboxamide], the negative-log IC50 (pIC50) is 7.39.

For the compound `COc1cc(-c2ccc(NC(=O)C3(c4cccc(Cl)c4)CC3)cc2-c2nnn[nH]2)cc(C(F)(F)F)n1` [Example 199, 1-(3-chlorophenyl)-N-{4-[2-methoxy-6-(trifluoromethyl)pyridin-4-yl]-3-(1H-tetrazol-5-yl)phenyl} cyclopropane-carboxamide], the negative logarithm of the IC50 (pIC50) is 5.62. On the same count and under the same terms, the value for `COc1ccc(-c2ccc(NC(=O)C3(c4cc(F)cc(F)c4)CC3)cc2-c2nnn[nH]2)cc1OC` [Example 13, 1-(3,5-difluorophenyl)-N-[3′,4′-dimethoxy-2-(1H-tetrazol-5-yl)biphenyl-4-yl]cyclopropane carboxamide] was 7.06. Same read-out and setting: next, `COc1ccc(-c2ccc(NC(=O)C3(CC(C)C)CC3)cc2-c2nnn[nH]2)cc1OC` [Example 55, N-[3′,4′-dimethoxy-2-(1H-tetrazol-5-yl)biphenyl-4-yl]-1-isobutyl-cyclopropane-carboxamide]: 5.69; `O=C(Nc1ccc(-c2cnc3ccoc3c2)c(-c2nnn[nH]2)c1)C1(c2cccc(Cl)c2)CC1` [Example 321, 1-(3-chlorophenyl)-N-[4-(furo[3,2-b]pyridin-6-yl)-3-(1H-tetrazol-5-yl)phenyl]cyclopro-panecarboxa-mide]: 6.82. Still for that read-out and setting: next, `COc1ccc(-c2ccc(NC(=O)C3(c4ccc(C(F)(F)F)cc4F)CC3)cc2-c2nnn[nH]2)cc1OC` [Example 20, N-[3′,4′-dimethoxy-2-(1H-tetrazol-5-yl)biphenyl-4-yl]-1-[2-fluoro-4-(trifluoromethyl)phenyl] cyclopropane-carboxamide]: 7.26.
